Assay results from ChEMBL document CHEMBL3124747, “Formosusin A, a novel specific inhibitor of mammalian DNA polymerase β from the fungus Paecilomyces formosus” (Bioorg Med Chem, 2014).

Assays:
DNA polymerase eta = target: T1, DNA polymerase eta (Homo sapiens, UniProt Q9Y253); experiment: Inhibition of C-terminal His-6-tagged human DNA polymerase eta expressed in Escherichia coli assessed as inhibition of incorporation of dTTP into poly(dA)/oligo(dT)18 after 60 mins
T1 sequence (Q9Y253 whole entry): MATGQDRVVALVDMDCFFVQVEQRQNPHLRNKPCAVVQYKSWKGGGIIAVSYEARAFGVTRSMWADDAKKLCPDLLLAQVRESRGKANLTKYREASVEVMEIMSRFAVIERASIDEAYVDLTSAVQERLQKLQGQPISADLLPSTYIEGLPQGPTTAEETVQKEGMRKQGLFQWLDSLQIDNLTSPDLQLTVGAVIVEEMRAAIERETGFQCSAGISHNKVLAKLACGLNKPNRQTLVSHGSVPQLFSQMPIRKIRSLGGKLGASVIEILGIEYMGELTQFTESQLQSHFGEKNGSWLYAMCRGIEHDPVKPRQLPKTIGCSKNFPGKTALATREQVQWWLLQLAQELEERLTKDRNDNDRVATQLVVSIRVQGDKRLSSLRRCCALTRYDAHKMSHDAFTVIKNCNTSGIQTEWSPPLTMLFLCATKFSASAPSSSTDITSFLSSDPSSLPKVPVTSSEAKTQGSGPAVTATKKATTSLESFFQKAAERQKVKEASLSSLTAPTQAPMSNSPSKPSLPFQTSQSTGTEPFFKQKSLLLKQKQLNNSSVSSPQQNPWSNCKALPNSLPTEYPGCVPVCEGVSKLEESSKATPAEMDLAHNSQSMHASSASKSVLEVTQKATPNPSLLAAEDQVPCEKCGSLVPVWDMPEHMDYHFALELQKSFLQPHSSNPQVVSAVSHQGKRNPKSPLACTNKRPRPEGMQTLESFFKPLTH

[1] = Inhibition of C-terminal His-6-tagged L. cv.Nipponbare rice recombinant DNA polymerase lambda expressed in Escherichia coli assessed as inhibition of incorporation of dTTP into poly(dA)/oligo(dT)18 after 60 mins; design: species or system Oryza sativa
DNA polymerase beta [2] = target: T2, DNA polymerase beta (Rattus norvegicus, UniProt P06766); experiment: Noncompetitive inhibition of recombinant rat DNA polymerase beta using dTTP as substrate by Lineweaver-Burk plot analysis
DNA polymerase beta [3] = target: T2, DNA polymerase beta; experiment: Competitive inhibition of recombinant rat DNA polymerase beta using poly(dA)/oligo(dT)18 as substrate by Lineweaver-Burk plot analysis
[4] = target: DNA polymerase beta (Rattus norvegicus) (UniProt P06766); experiment: Inhibition of recombinant rat DNA polymerase beta expressed in Escherichia coli JMpbeta5 assessed as inhibition of incorporation of dTTP into poly(dA)/oligo(dT)18 after 60 mins

Q: Which results are given for `CCCCC(=O)/C=C(C)/C=C/CCC(=O)N1CCCC1=O`?
A: IC50 (DNA polymerase eta): > 200 µM; IC50 [1]: > 200 µM

Q: For `CCCC[C@@H](O)/C=C(C)/C=C/C=C\C(=O)N1CCCC1=O`, which IC50 (DNA polymerase eta) is on record?
A: The IC50 was over 200 µM.

Q: What about the Ki (DNA polymerase beta [2]) of the same compound?
A: The Ki was 11.6 µM.

Q: And the IC50 [1]?
A: The IC50 was over 200 µM.

Q: What about the Ki (DNA polymerase beta [3]) of the same compound?
A: Its Ki is 5.5 µM.

Q: And the inhibition [4]?
A: Its inhibition is “Dose-dependent effect”.

Q: Which IC50 (DNA polymerase eta) does the source give for `CCCC[C@@H](O)/C=C(C)/C=C/C=C/C(=O)N1CCCC1=O` [PECILOCIN] here?
A: The IC50 was over 200 µM.

Q: And the IC50 [1]?
A: The IC50 was over 200 µM.

Q: With `CC(/C=C/CCC(=O)N1CCCC1=O)=C\C1CCCCO1` (stereo unspecified) as the compound, how does the IC50 (DNA polymerase eta) read?
A: Its IC50 is over 200 µM.

Q: What about the IC50 [1] of the same compound?
A: The IC50 was over 200 µM.
